Assay results published in ChEMBL document CHEMBL4507268 (2021).

Columns and labels:
Details in all cases: Compound concentration 1.0 uM
[1] = molecular target: Serine/threonine-protein kinase B-raf (Homo sapiens) (UniProt P15056)
[2] = molecular target: Ephrin type-A receptor 7 (Homo sapiens) (UniProt Q15375)
[3] = molecular target: Calcium/calmodulin-dependent protein kinase type 1G (Homo sapiens) (UniProt Q96NX5)
[4] = molecular target: Mitogen-activated protein kinase 1 (Homo sapiens) (UniProt P28482)
[5] = molecular target: T1, Serine/threonine-protein kinase Nek2 (Homo sapiens) (UniProt P51955)
T1 sequence (whole entry): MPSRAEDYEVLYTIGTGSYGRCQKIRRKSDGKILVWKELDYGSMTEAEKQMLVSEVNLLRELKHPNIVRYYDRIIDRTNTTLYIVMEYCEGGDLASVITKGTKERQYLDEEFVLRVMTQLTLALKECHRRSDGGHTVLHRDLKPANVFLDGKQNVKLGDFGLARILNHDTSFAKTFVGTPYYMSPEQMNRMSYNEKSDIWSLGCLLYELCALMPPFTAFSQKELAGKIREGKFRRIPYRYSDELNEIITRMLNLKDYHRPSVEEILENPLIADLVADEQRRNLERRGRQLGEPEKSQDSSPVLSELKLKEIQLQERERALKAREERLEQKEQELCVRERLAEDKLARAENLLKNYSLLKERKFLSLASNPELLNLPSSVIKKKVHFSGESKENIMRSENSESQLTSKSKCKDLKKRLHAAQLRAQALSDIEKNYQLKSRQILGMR

[6] = molecular target: T2, Rhodopsin kinase GRK1 (Homo sapiens) (UniProt Q15835)
T2 sequence (whole entry): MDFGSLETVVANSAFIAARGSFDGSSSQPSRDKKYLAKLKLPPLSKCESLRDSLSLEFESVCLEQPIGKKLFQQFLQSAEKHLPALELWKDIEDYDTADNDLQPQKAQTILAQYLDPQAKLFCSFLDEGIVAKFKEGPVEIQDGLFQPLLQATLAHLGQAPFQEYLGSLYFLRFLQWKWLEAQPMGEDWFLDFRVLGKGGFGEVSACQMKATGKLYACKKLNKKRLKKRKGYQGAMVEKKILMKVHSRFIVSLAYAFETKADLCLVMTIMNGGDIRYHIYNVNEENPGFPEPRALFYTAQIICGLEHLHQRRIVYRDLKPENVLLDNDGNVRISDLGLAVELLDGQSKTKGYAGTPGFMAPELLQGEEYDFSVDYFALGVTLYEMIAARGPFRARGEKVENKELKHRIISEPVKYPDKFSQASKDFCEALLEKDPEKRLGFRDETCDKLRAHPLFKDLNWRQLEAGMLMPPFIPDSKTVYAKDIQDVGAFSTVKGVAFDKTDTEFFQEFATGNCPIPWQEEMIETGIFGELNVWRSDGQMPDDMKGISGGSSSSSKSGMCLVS

[7] = molecular target: Casein kinase I isoform gamma-1 (Homo sapiens) (UniProt Q9HCP0)
[8] = molecular target: Serine/threonine-protein kinase PAK 2 (Homo sapiens) (UniProt Q13177)
[9] = molecular target: Serine/threonine-protein kinase Nek6 (Homo sapiens) (UniProt Q9HC98)
[10] = molecular target: Tyrosine-protein kinase SYK (Homo sapiens) (UniProt P43405)
[11] = molecular target: Casein kinase I isoform delta (Homo sapiens) (UniProt P48730)
[12] = molecular target: Dual specificity mitogen-activated protein kinase kinase 2 (Homo sapiens) (UniProt P36507)
[13] = molecular target: Serine-protein kinase ATM (Homo sapiens) (UniProt Q13315)
[14] = molecular target: Serine/threonine-protein kinase SIK2 (Homo sapiens) (UniProt Q9H0K1)
[15] = molecular target: T3, Serine/threonine-protein kinase 17A (Homo sapiens) (UniProt Q9UEE5)
T3 sequence (whole entry): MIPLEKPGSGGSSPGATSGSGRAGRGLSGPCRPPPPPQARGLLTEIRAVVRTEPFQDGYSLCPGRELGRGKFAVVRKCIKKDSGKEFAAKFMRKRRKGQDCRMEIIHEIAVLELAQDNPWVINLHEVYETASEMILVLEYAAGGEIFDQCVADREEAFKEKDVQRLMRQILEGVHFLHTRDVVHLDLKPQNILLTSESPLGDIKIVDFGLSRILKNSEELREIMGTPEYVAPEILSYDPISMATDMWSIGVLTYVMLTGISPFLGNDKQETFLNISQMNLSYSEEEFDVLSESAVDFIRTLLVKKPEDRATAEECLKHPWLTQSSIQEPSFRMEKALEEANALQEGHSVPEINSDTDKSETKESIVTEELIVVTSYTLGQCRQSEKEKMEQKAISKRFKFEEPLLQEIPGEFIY

[16] = molecular target: T4, Serine/threonine-protein kinase TBK1 (Homo sapiens) (UniProt Q9UHD2)
T4 sequence (whole entry): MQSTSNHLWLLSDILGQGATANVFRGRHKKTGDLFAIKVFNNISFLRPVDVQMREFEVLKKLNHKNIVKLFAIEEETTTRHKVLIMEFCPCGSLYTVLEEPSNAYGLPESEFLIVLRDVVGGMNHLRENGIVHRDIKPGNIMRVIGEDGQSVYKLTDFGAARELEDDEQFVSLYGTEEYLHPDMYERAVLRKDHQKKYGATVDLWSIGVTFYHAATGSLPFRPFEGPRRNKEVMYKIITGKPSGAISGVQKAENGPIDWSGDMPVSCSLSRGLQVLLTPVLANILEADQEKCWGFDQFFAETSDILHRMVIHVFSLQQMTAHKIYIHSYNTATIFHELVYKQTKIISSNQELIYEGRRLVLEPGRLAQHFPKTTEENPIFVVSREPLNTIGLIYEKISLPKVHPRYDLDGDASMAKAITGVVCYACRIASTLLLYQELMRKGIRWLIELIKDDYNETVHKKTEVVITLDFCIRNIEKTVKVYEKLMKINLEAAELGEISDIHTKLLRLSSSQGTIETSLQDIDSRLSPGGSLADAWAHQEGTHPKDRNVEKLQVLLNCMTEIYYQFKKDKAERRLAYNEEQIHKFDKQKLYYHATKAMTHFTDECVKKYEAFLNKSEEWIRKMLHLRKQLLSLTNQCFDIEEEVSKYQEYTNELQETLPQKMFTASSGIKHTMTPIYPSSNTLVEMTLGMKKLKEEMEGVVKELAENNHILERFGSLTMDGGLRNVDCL

Measured: % residual kinase activity

Chain of Dual specificity mitogen-activated protein kinase kinase 2 (Homo sapiens) (P36507 whole entry): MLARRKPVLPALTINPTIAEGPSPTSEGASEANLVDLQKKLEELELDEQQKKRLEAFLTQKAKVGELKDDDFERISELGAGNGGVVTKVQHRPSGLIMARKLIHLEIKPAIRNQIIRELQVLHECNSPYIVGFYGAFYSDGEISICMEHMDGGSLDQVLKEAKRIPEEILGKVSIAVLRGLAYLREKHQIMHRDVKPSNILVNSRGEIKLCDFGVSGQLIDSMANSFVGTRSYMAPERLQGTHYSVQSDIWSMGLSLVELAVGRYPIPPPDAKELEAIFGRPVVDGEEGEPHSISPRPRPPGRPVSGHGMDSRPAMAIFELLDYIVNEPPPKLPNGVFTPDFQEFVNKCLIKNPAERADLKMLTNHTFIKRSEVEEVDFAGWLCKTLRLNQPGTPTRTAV
Chain of Casein kinase I isoform gamma-1 (Homo sapiens) (Q9HCP0 whole entry, looked up, canonical isoform): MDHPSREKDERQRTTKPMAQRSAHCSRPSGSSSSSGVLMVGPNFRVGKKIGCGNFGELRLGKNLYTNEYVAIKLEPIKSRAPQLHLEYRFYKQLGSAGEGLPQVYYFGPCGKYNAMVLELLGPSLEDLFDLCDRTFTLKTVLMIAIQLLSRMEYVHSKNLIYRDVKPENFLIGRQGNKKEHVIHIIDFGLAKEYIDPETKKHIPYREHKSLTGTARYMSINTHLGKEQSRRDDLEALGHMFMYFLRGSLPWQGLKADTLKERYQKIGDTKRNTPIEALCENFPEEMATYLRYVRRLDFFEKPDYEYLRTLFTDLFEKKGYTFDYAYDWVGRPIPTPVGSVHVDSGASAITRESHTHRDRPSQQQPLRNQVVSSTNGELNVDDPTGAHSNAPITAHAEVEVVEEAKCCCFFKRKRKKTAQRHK
Chain of Serine/threonine-protein kinase Nek6 (Homo sapiens) (Q9HC98 whole entry): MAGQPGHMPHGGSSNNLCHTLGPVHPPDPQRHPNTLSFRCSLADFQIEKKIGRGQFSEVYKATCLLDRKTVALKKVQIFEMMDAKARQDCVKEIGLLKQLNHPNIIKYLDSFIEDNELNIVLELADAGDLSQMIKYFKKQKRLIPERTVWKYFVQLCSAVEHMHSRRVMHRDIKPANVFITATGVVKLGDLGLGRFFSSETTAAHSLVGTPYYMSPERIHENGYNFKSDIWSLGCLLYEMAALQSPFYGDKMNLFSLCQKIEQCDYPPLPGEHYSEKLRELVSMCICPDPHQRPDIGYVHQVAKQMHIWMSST
Chain of Serine/threonine-protein kinase B-raf (Homo sapiens) (P15056 whole entry): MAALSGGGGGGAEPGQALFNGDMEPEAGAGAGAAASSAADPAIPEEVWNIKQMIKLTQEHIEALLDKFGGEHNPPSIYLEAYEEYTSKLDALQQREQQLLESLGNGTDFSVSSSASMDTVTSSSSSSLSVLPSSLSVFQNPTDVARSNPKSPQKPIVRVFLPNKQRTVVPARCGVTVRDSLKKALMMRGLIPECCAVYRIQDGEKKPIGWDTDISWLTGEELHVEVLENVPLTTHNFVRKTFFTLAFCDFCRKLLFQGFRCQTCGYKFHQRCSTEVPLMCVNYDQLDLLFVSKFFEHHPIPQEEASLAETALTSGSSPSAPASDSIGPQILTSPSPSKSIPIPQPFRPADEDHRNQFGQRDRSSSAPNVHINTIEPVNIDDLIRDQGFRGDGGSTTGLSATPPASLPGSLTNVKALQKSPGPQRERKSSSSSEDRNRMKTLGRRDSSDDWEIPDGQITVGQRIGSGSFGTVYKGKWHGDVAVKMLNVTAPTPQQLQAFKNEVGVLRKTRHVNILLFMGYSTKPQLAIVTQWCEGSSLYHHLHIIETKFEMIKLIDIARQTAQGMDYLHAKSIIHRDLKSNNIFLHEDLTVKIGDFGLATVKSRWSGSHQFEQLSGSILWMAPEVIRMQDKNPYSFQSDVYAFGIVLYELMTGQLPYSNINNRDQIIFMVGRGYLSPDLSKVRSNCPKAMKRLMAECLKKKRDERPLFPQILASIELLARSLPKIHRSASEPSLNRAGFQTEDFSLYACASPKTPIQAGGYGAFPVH
Chain of Ephrin type-A receptor 7 (Homo sapiens) (Q15375 28-998 limits assumed): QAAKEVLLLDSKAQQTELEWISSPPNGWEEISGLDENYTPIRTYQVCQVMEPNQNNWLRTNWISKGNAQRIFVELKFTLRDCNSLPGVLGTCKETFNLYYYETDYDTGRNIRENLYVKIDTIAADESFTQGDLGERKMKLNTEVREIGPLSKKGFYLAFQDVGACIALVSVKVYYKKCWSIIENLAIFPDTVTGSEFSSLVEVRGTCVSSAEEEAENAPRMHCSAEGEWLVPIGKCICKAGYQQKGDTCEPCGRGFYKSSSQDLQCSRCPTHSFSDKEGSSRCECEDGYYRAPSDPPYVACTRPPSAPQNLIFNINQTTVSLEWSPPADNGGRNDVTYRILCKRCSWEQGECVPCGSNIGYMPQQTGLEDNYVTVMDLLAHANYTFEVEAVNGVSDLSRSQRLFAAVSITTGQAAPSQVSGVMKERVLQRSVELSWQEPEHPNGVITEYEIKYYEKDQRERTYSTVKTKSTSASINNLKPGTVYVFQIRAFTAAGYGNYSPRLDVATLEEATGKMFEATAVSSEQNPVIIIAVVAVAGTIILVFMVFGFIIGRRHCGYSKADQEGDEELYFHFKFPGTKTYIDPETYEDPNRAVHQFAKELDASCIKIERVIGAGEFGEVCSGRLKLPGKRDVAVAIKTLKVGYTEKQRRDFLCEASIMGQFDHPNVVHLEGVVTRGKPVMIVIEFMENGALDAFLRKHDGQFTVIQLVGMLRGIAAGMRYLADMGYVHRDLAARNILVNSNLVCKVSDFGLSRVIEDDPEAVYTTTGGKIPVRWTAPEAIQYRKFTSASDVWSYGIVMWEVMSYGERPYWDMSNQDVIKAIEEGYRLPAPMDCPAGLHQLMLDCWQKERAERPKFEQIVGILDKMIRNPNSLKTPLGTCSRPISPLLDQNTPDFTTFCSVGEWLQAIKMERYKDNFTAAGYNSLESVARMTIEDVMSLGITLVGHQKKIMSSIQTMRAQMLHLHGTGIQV
Chain of Calcium/calmodulin-dependent protein kinase type 1G (Homo sapiens) (Q96NX5 whole entry): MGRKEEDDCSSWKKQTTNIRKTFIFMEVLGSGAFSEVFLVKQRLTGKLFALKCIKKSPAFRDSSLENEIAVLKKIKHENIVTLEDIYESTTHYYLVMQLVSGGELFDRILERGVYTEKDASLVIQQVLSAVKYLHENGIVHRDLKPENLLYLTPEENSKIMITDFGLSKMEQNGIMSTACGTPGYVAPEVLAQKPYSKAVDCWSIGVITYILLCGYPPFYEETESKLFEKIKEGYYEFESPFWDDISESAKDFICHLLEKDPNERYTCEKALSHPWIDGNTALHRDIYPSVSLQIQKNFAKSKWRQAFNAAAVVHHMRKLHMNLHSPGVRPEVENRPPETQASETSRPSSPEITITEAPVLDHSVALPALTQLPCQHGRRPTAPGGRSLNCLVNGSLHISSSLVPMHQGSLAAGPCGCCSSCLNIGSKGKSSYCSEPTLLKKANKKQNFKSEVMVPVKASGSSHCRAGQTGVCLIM
Chain of Serine/threonine-protein kinase PAK 2 (Homo sapiens) (Q13177 whole entry): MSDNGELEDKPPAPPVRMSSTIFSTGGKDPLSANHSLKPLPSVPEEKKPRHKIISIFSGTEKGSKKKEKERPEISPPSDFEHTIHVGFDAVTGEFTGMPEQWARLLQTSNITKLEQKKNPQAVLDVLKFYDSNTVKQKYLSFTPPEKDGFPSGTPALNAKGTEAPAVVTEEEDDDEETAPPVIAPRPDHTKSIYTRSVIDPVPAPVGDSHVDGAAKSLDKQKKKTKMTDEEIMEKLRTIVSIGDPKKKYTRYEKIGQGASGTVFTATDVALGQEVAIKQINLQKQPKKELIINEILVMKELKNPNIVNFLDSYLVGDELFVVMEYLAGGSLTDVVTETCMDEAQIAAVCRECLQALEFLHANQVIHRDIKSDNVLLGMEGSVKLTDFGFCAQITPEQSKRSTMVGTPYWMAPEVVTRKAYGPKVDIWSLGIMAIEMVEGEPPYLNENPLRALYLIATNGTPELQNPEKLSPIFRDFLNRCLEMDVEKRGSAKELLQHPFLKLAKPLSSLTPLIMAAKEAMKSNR
Chain of Casein kinase I isoform delta (Homo sapiens) (P48730 whole entry, looked up, canonical isoform): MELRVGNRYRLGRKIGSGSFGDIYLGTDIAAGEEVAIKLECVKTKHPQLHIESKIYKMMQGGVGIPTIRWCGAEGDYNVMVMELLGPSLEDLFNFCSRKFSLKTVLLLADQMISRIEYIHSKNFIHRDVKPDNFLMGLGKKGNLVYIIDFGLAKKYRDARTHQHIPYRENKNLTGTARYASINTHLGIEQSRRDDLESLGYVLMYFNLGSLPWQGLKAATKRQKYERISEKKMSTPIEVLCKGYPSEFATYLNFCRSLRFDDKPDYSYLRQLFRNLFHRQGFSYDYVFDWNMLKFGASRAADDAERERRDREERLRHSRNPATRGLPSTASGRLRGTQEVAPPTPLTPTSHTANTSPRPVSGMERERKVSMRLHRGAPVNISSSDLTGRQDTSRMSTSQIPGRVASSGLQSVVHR
Chain of Mitogen-activated protein kinase 1 (Homo sapiens) (P28482 whole entry): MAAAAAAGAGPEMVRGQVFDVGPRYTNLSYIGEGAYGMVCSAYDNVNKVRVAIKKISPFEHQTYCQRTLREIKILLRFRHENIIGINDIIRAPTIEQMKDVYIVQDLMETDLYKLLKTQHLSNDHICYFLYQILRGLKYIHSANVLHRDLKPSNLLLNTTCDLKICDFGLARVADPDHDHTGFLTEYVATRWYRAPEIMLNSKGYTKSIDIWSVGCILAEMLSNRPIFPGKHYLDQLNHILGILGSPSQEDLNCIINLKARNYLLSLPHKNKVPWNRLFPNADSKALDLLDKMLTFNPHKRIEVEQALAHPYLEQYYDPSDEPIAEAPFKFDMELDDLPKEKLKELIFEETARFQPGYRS

CN1CCN(c2cnc3c(C4CCN(C(=O)c5ccc(OC(F)(F)F)cc5N)CC4)ncnc3c2)CC1 [BAY-885]
inactive: [1] 109% | [2] 92% | [3] 103% | [4] 107% | [5] 111% | [6] 117% | [7] 105% | [8] 108% | [9] 125% | [10] 87% | [11] 116% | [12] 103% | [13] 107% | [14] 101% | [15] 85% | [16] 118%
